Assay results from US20020147175A1, “Synergistic ECTA compositions” (priority 2000, published 2002).

Key:
Type in all cases: cell-based, human
[1] = tested on: CCD18co normal colon epithelial cells; test: 96-well crystal violet combination cytotoxicity assay with NB1011; settings: for Interaction: interaction with NB1011, CCD18co; for Average combination index (CI): drug combined with NB1011 at constant molar ratio, CCD18co normal cells, 96-well crystal violet, 72 hour incubation
Method: (§1) Normal human colon epithelial cells (CCD18co) and skin fibroblasts (Det551) were purchased from ATCC (Rockville, Md.). MCF7TDX, human breast carcinoma cells resistant to 2 μM Tomudex were obtained from Dr. Patrick Johnston, Queens University, Belfast. […] The MCF7TDX and the H630R10 cell lines have been previously described in Drake, J. C. et al., 1996 and Copur, S. et al., 1995, respectively.
(§2) All cells were cultured under standard conditions of 37° C., 95% humidified air, 5% CO2 in RPMI 1640 culture medium containing 10% fetal calf serum (Life Technologies) and penicillin/streptomycin/fungizone. MCF7TDX cells were maintained continuously in 2 μM Tomudex, and H630R10 cells were maintained continuously in 10 μM 5-FU. The medium was renewed or the cells were passaged about every three days to maintain optimal growth conditions. Normal cells were passaged a maximum of 15 times to avoid senescence.
(§3) Exponentially rowing cells were transferred at a density of 1.0−5.5×10^3 cells per well to a 96-well tissue culture plate and allowed to attach for 24 hours. Compounds were then applied in duplicate half log serial dilutions. Each compound was tested separately, and mixed together at a single molar ratio approximately equal to the ratio of the individual IC50 values. After an additional 72 hour incubation, cells were washed once with PBS and stained with 0.5% crystal violet in methanol. Plates were washed gently in water to remove unbound stain and allowed to dry overnight. Crystal violet stain bound to the total protein of attached cells was redissolved in Sorenson's buffer (0.025 M sodium citrate, 0.025 M citric acid in 50% ethanol), and absorbance monitored at 535 nm. Sigmoid curves were fit according to the Hill inhibitory Emax model, and IC50 calculated as the average of three or more separate determinations. Where applicable, the combination index for multiple drug effects was calculated according to the median-effect principle (Chou, T. C. and Talalay, P. 1984) using the CalcuSyn software from Biosoft (Ferguson, Mo.). Briefly, the IC50 and the slope parameter (m) for each agent alone were determined from the median effect plot, an x,y plot of log(D) vs log (fa/fu) based on Chou's median effect equation:
(§4) fa/fu=(D/Dm)^m [Equation 1]
(§5) Only experiments with linear correlation coefficients (r)>0.9 were accepted for analysis. A combination index (CI) was then calculated to assess synergism or antagonism according to the following equation which assumes an independent mechanism of drug action (mutual exclusivity):
(§6) CI=(D)1/(Dx)1+(D)2/(Dx)2+(D)1(D)2/(Dx)1(Dx)2 [Equation 2]
(§7) where (D)1 and (D)2 are the concentrations of drug 1 and drug 2 which combined produce x% inhibition, and (Dx)1 and(Dx)2 are the concentrations of each drug which alone produce x% inhibition. CI=1 indicates an additive interaction, CI<1 indicates synergy, and CI>1 indicates antagonism. For each experiment CI's from several different effect levels and concentrations of a constant molar ratio were averaged.
(§8) The 96-well format was chosen for more detailed drug interaction studies. […] To analyze whether any of these drugs would enhance the activity of NB1011 specifically in tumor cells, two normal cell types, Det551 and CCD18co, were included in the assays.

H630R10 cells [2] = test: as above; settings: for Interaction: interaction with NB1011; for Average combination index (CI): drug combined with NB1011 at constant molar ratio, 96-well crystal violet, 72 hour incubation
Method: as §1, §2, §3, §4, §5, §6, §7, §8

MCF7TDX cells [3] = test: as above; settings: for Interaction: interaction with NB1011; for Average combination index (CI): drug combined with NB1011 at constant molar ratio, 96-well crystal violet, 72 hour incubation
Method: as §1, §2, §3, §4, §5, §6, §7, §8

[4] = tested on: Det551 normal skin fibroblasts; test: as above; settings: for Interaction: interaction with NB1011, Det551; for Average combination index (CI): drug combined with NB1011 at constant molar ratio, Det551 normal cells, 96-well crystal violet, 72 hour incubation; as to Interaction: key: Syn = synergy; Ant = antagonism; Add = additivity
Method: as §1, §2, §3, §4, §5, §6, §7, §8

H630R10 cells [5] = test: 384-well alamarBlue interaction screening assay with NB1011; settings: drug combined with NB1011, 5-day incubation, average of at least 4 consecutive dose/effect levels
Method: as §1, §2
(§9) 500 cells per well were transferred to a 384-well tissue culture plate (Corning Inc., Corning, N.Y.) and allowed to attach for 24 hours in standard culture conditions. Compounds were then applied in a bidirectional (checker board) pattern (Chou, T. C. and Talalay, P. 1984). Following a 5-day incubation, the redox indicator dye, alamarBlue (AccuMed International, Westlake, Ohio) was added to each well at a 10% v/v ratio, and fluorescence was monitored at 535 excitation, 595 emission. Cytotoxic effect levels and drug interactions were assessed by the combination index method (Chou, T. C. and Talalay, P. 1984 and Bible, K. C. et al. 1997), described briefly below.
as §5, §6, §7
(§10) In general, a combination index of <1 indicates synergy, ˜1 indicates additivity, and >1 indicates antagonism (Pegram, M. D. et al. (1999)).

MCF7TDX cells [6] = test: as above; settings: drug combined with NB1011, 5-day incubation, average of at least 4 consecutive dose/effect levels
Method: as §1, §2, §9, §5, §6, §7, §10

| SMILES | Interaction [1] | Interaction (H630R10 cells [2]) | Interaction (MCF7TDX cells [3]) | Interaction [4] | Combination Index ± s.e.m. (H630R10 cells [5]) | Combination Index ± s.e.m. (MCF7TDX cells [6]) | Average combination index (CI) [1] | Average combination index (CI) (H630R10 cells [2]) | Average combination index (CI) (MCF7TDX cells [3]) | Average combination index (CI) [4] |
| --- | --- | --- | --- | --- | --- | --- | --- | --- | --- | --- |
| CC[C@]1(O)C[C@@H]2CN(CCc3c([nH]c4ccccc34)[C@@](C(=O)OC)(c3cc4c(cc3OC)N(C)[C@H]3[C@@](O)(C(=O)OC)[C@H](OC(C)=O)[C@]5(CC)C=CCN6CC[C@]43[C@@H]65)C2)C1 [Vinblastine] | Syn | Syn | Ant | Syn | 0.78 ± 0.32 |  |  |  |  |  |
| CCc1c2c(nc3ccc(OC(=O)N4CCC(N5CCCCC5)CC4)cc13)-c1cc3c(c(=O)n1C2)COC(=O)[C@]3(O)CC [Irinotecan] |  |  |  |  | 1.26 ± 0.20 |  |  |  |  |  |
| N.N.[Cl][Pt][Cl] [Cisplatin] |  |  |  |  |  | 1.51 ± 0.35 |  |  |  |  |
| O=C1[O][Pt]2([NH][C@@H]3CCCC[C@H]3[NH]2)[O]C1=O [Oxaliplatin] |  | Ant | Ant |  |  |  |  |  |  |  |
| COc1cccc2c1C(=O)c1c(O)c3c(c(O)c1C2=O)C[C@@](O)(C(=O)CO)C[C@@H]3O[C@H]1C[C@H](N)[C@H](O)[C@H](C)O1 [Doxorubicin] |  | Ant | Ant |  |  |  |  |  |  |  |
| CC(=O)O[C@H]1C(=O)[C@@]2(C)[C@H]([C@H](OC(=O)c3ccccc3)[C@]3(O)C[C@H](OC(=O)[C@H](O)[C@@H](NC(=O)c4ccccc4)c4ccccc4)C(C)=C1C3(C)C)[C@]1(OC(C)=O)CO[C@@H]1C[C@@H]2O [Taxol] |  |  |  |  | 0.99 ± 0.15 |  |  |  |  |  |
| O=[N+]([O-])c1ccc(CSc2ncnc3c2ncn3C2OC(CO)C(O)C2O)cc1 (stereo not shown) [NBMPR, p-nitrobenzylthioinosine] | Ant | Syn | Syn | Ant |  |  | 3.93 | 0.35 | 0.57 | 1.43 |
| OCCN(CCO)c1nc(N2CCCCC2)c2nc(N(CCO)CCO)nc(N3CCCCC3)c2n1 [Dipyridamole, dipyridamole] | Ant | Syn | Syn | Add |  |  | 1.30 | 0.75 | 0.51 | 1.17 |
